Values after ≈ are worked out from the molar mass of the structure shown.
How the values were obtained:
[1] = test system: complement alternative pathway (AP) activity; assay: MAD study: serum AP activity ex vivo by AP Wieslab assay; assay type: in vivo, human; settings: for % AUEC0-12 / DURATION0-12: Days 7 and 14 combined analysis
Experimental: Serum AP hemolysis activity was assessed in samples collected from all cohorts at predefined time points from Day 1 (pre-dose) through Day 21. Intense sampling was obtained on Day 1 (0 h to 12 h), Day 7 (0 h to 12 h), and Day 14 (0 h to 16 h); all other serum samples were collected at 0 h (morning PK troughs) on the indicated days. Activity for each cohort is shown for the complete time course Day 1-21 (FIG. 17), Day 1 (FIG. 18), Day 7 (FIG. 19) and Day 14 (FIG. 20). Serum complement AP activity measured ex vivo by the AP Wieslab assay, serum total complement classical pathway (CP) activity, plasma complement Bb concentrations, and serum FD, C3, and C4 concentrations were also measured at predefined time points.

[2] = test system: complement alternative pathway (AP) activity; assay: Steady-state / PK-PD modeling of AP inhibition versus plasma concentration; design: species or system human
Experimental: Based on the ex vivo AP inhibition assay, a steady state model was prepared comparing the % inhibition of Ap based on drug plasma concentration. […] Therefore, Compound 1 is shown to be potent while still having improved safety margins that may allow for better dosing flexibility.

[3] = Homo sapiens, sigmoidal model, multiple-dose cohorts

EC50 ([1]; Homo sapiens, Emax model, multiple-dose cohorts): 0.0143 µg/mL (≈ 0.0237 µM)
EC50 [1, 3]: 0.0192 µg/mL (≈ 0.0319 µM)
EC90 [1, 3]: 0.0669 µg/mL (≈ 0.111 µM)
EC90 (plasma concentration providing about 90% AP activity inhibition) ([2]; modeling): 0.067 to 0.088 µg/mL
IC90 of AP activity (Ctrough for 90% inhibition) ([2]; steady-state modeling from SAD ex vivo AP inhibition, FIG. 10): about 67 ng/mL
SMILES: CC(=O)c1nn(CC(=O)N2[C@H](C(=O)Nc3nc(Br)ccc3C)C[C@@]3(C)C[C@@H]23)c2ccc(-c3cnc(C)nc3)cc12 [Compound 1, (1R,3S,5R)-2-(2-(3-acetyl-5-(2-methylpyrimidin-5-yl)-1H-indazol-1-yl)acetyl)-N-(6-bromo-3-methylpyridin-2-yl)-5-methyl-2-azabicyclo[3.1.0]hexane-3-carboxamide]
% AUEC0-12 ([1]; 120 mg BID): 98.6%
DURATION0-12 ([1]; 120 mg BID): 11.6 h
% AUEC0-12 ([1]; 200 mg BID): 99.3%
DURATION0-12 ([1]; 200 mg BID): 11.9 h
inhibition at 120 mg ([1]; Homo sapiens, 120 mg BID and 200 mg BID, read-out: calculated percent inhibition across 0 h and 12 h time points): > 90%
inhibition of AP activity ([2]; at Ctrough of 65 ng/mL to 95 ng/mL): greater than 85%
AP inhibition ([2]; at Ctrough of about 88 ng/mL): > 90%
AP inhibition ([2]; at Ctrough of about 67-88 ng/mL): greater than 90%
